Experimental findings from US20220296526A1, “CANNABINOID COMPOSITIONS, METHODS OF MAKING SAME AND USES THEREOF” (HEXO OPERATIONS INC., priority 2019, published 2022) are described below.

The data set in a line: DLS particle size tracking around spray drying (nanoemulsion, solubilized carrier, pre-spray dried mixture, re-hydrated powder). In kind it is physicochemical. The following applies: solubilized carrier alone, 0.4 g/ml. The procedure:
Particle size of all nanoemulsions was measured in water solution at 25° C. using dynamic light scattering (DLS). All samples in the present disclosure have been analyzed at a dilution of 1/20 in purified water using a LiteSizer™ (Anton Paar GmbH, Germany).
The resulting spray dried emulsion powder was analyzed by performing a rehydration and then performing a visual inspection for turbidity and DLS analysis for particle size tracking of the generated emulsion (see Table 9).

Where “and” joins values, the source holds several entries; their conditions need not be identical. Equal entries are not always repeated.

With `OC[C@@H](O)[C@@H](O)[C@H](O)[C@H](O)CO` [Pearlitol (Mannitol), Mannitol], the “Particle Size Carrier” value was 287 nm, poor signal and 225 nm, poor signal.
